The record followed here is patent publication US20200123146A1, “HETEROCYCLIC INTEGRIN AGONISTS” (GB006, Inc., priority 2016, published 2020).

Structures are written as SMILES.

The test system of one data set is CT26 cells. The data set can be described thus: Syngeneic colon cancer mouse model using CT-26 cell line. The data set is classed as in vivo, BALB/c mice. The settings on record: Day 21, female Balb/C, 10 mg/kg PO BID. The method, then:
Compound 1, compound 8, and compound 12 were dosed at 10 mg/kg BID oral daily for 21 days in a syngeneic colon cancer mouse model using CT-26 cell line. CT26 cells were injected subcutaneously into right flank of female BALB/c mice, aged 7-8 weeks, on Day 1. Tumors were grown for 11 days and dosing was begun and dosed daily for 21 days. Tumor volume/growth (TV=Length×Width 2/2) was measured two times a week. Body weight was measured twice weekly. At the end of study tumor tissue and serum was collected and preserved. Morbidity and Mortality was monitored during the course of study.

Data set [1] addresses T1, integrin CD11b/CD18 (K562 CD11b/CD18 cells) (Homo sapiens, UniProt P05107+P11215).
T1 construct: host or cells: K562 cells stably transfected with wild-type CD11b/CD18
Put plainly: K562 cell adhesion assay with immobilized ligands. The data set is classed as cell-based. The settings on record: cell-based adhesion assay, K562 cells, 30 min at 37° C. An excerpt: (§1) Cell Lines. K562 cells (ATCC) stably transfected with wild-type integrin CD11b/CD18 (K562 CD11b/CD18) have been described previously (Park, etal. J Biomol Screen, 2007. 12(3): 406; Gupta, et al., Blood, 2007. 109(8): 3513; incorporated herein by reference in their entirety). Mutant CD11bE320A has been described previously (Alonso, et al. Curr Biol, 2002. 12(10): R340; incorporated herein by reference in its entirety). K562 cells stably transfected with mutant integrin CD11bE320A/CD18 (K562 E320A) were generated according to literature protocols (Park, supra; Gupta, supra). All cell lines were maintained in Iscove's Modified Dulbecco's Medium (IMDM) supplemented with 10% heat-inactivated fetal bovine serum, 50 IU/ml penicillin and streptomycin and 0.5 mg/ml G418.
(§2) K562 Cell Adhesion Assay. Cell adhesion assays with immobilized ligands were performed as previously described (Park, supra). Assays with all different K562 cell lines (K562, K562 CD11b/CD18 and K562 E320A) were performed in an identical fashion. Briefly, 384-well Highbind microtiter plates were coated with a 30 μL solution of ligand in Phosphate Buffered Saline, pH 7.4 containing 1 mM each of Ca^2+ and Mg^2+ ions (PBS^++) overnight at 4° C. Ligand Fg was coated at a concentration of 5-15 μg/mL and iC3b at 1-5 μg/mL. Heterodimer specific mAb IB4 was coated at 1-20 μg/mL. Subsequently, the non-specific sites in the wells were blocked by incubation with 1% non-fat milk in Tris Buffered Saline (TBS), pH 7.4, at room temperature for 1 h. Next, the wells were washed three times with TBS. K562 cells were suspended in the assay buffer (TBS containing 1 mM each of Ca^2+ and Mg^2+ ions (TBS^++)) and were transferred to the ligand-coated wells (30,000 cells/well). Stock solutions of the integrin agonists were prepared by dissolving the compounds in DMSO at a concentration of 2-10 mM. Final concentration of DMSO in the assay was approximately 1-2%. K562 cells were incubated in the presence of increasing concentration of integrin agonist for 30 min at 37° C. To dislodge non-adherent cells, the assay plates were gently inverted and kept in the inverted position for 30 min at room temperature. Cells remaining adherent were fixed using formaldehyde and were quantitated using imaging microscopy, as previously described (Park, supra).

Data set [2] has as its target T2, integrin CD11b/CD18 (K562 CD11b/CD18 cells) (Homo sapiens, UniProt P11215).
T2 construct: host or cells: K562 cells stably transfected with wild-type CD11b/CD18
The data set can be described thus: K562 cell adhesion assay with immobilized ligands. The data set is classed as cell-based. The settings on record: for activity level in adhesion assay: compared with the other compounds in the study.
Description: as §1, §2

Data set [3] can be described thus: Pharmacokinetic properties after PO/IV cassette dosing. The data set is classed as in vivo, Balb/C mice. Particulars: mouse, plasma; for Vd: read-out: Vdss; for AUC(0-t): PO 10 mg/kg and/or IV 1 mg/kg cassette dose; for bioavailability: head prints Rat, method Balb/C mice, PO 10 mg/kg, IV 1 mg/kg cassette dose, read-out: Rat F %. The method, then: Integrin agonists as described above were administered to Balb/C mice orally (PO; gavage; 10 mg/kg) and/or intravenously (IV; bolus through tail vein; 1 mg/kg) as a cassette dose with 2 to 3 compounds dosed at a time. A total of twelve mice between age 5-6 weeks with a body weight range of 24-28 g were used. The feeding regimen included 4 h fasting and the feed was provided 2 h after the dosage inoculation and water was provided ad libitum. The blood collection schedule for PO was at 0.25, 0.5, 1, 2, 4, 8,10 and 24 h, and for IV it was at 0.12, 0.25, 0.5, 1, 2, 4, 8 and 24 h post-dose administration under isoflurane anesthesia. For PO dosage, a suspension formulation in 0.2% Tween-80 and 99.8% methyl cellulose (0.5% in water) was prepared in milli-Q water; for IV dosage, a solution formulation in 5% DMSO, 5% Solutol:absolute alcohol (1:1, v/v), and 90% normal saline was prepared.
Dose preparation: For PO dosage, each integrin agonist was wetted with Tween-80 and triturated in a mortar and pestle, and then 0.5% of methyl cellulose was slowly added to make up the final volume for administration. For IV dosage, each integrin agonist was dissolved in DMSO and Solutol:absolute ethanol (1:1, v/v), vortexed, and combined with normal saline.
Methodology for preparation of CC/QC samples: 5 μL of working stock solution was spiked in to 45 μL of blank plasma to obtain the desired concentration in pre-labeled vials. To it was added 250 μL of 100% acetonitrile containing internal standard (tolbutamide: 100 ng/mL) and the sample was vortexed for 2 min followed by centrifugation for 5 min at 20,817×g at 4° C. Supernatant was separated and 5 μL of same was injected on LC-MS/MS.
Data Analysis: Na2EDTA plasma samples were analyzed using a fit-for-purpose LC-MS/MS method.

Where [4] appears, read: Balb/C, IV 1 mg/kg and/or PO 10 mg/kg cassette dose.

In general, EC50 refers to the concentration at which the effect is half-maximal. Higher therefore signals a need for much substance. The Tmax is the time from dosing to the highest level. As usually defined, the half-life is the time needed for the level to fall by half in the phase considered. One may read the AUC(0-t) as the area under the concentration-time curve up to a stated or last time point. In general, Cmax refers to the highest concentration seen after dosing.

`O=C(O)c1ccc(-c2ccc(/C=C3\OC(=S)N(Cc4ccccc4)C3=O)o2)cc1` [Compound 1, (Z)-4-(5-((3-Benzyl-4-oxo-2-thioxooxazolidin-5-ylidene)methyl)furan-2-yl)benzoic acid]: in the data set on CT26 cells, the “% Reduction in Tumor Volume” value is reported as −38.30% and the “% Reduction in Tumor Weight” value is −37.15%. Besides, the EC50 in data set [1] fell in the range of 250 to 1000 nM. In addition, the “fold more active in promoting adhesion than imidazolidine compound 4” value in data set [2] (relative to compound 4) was “greater than 7 fold”. In addition, in data set [2] (relative to compound 5), the “fold more active in promoting adhesion than imidazolidine compound 5” value is given as “greater than 40 fold”. Also, in data set [3] (setting [4]), the Tmax was 2 h, the half-life is 1.97 h and the Vd is 1.5 L/kg. The molecule further returned an AUC(0-t) in data set [3] (Balb/C) of 1060 ng·h/mL. Moreover, in data set [3], the bioavailability was determined as 18.6%.
Turning to `O=C(O)c1ccc(-c2ccc(/C=C3\OC(=S)N(Cc4ccc(F)cc4)C3=O)o2)cc1` [Compound 8, (Z)-4-(5-((3-(4-Fluorobenzyl)-4-oxo-2-thioxooxazolidin-5-ylidene)methyl)furan-2-yl)benzoic acid], in the data set with CT26 cells, the “% Reduction in Tumor Volume” value stood at 5.25% and the “% Reduction in Tumor Weight” value is on record as −3.08%. Besides, in data set [1], the EC50 was in the range of 100 to 250 nM. In data set [3] (setting [4]), the Tmax is 2 h, the half-life is 3.09 h and the Vd was determined as 1.37 L/kg. In addition, the bioavailability in data set [3] was determined as 8.82%.
For `O=C(O)c1ccc(-c2ccc(/C=C3\SC(=S)N(Cc4ccccc4)C3=O)o2)cn1` [Compound 12, (Z)-5-(5-((3-benzyl-4-oxo-2-thioxothiazolidin-5-ylidene)methyl)furan-2-yl)picolinic acid], in the data set with CT26 cells, the “% Reduction in Tumor Volume” value was −4.42% and the “% Reduction in Tumor Weight” value worked out at 11.03%. The molecule also came in with an EC50 in data set [1] of 100 to 250 nM. Besides, the “activity level in adhesion assay” value in data set [2] is “some of the highest activity levels”. Also, in data set [3] (setting [4]), the Cmax amounted to 55 ng/mL, the Tmax stood at 0.5 h and the half-life is 1.39 h. This molecule also registered an AUC(0-t) in data set [3] (Balb/C) of 176 ng·h/mL.
As to `O=C(O)c1ccc(-c2ccc(/C=C3\SC(=S)N(Cc4ccc(F)cc4)C3=O)o2)cn1` [Compound 15, (Z)-5-(5-((3-(4-Fluorobenzyl)-4-oxo-2-thioxothiazolidin-5-ylidene)methyl)furan-2-yl)picolinic acid], in data set [1], the EC50 lay in the range of 100 to 250 nM. Also, the “activity level in adhesion assay” value in data set [2] is listed as “some of the highest activity levels”.
In data set [1], `Cc1cccc(CN2C(=O)/C(=C/c3ccc(-c4ccc(C(=O)O)cc4)o3)SC2=S)c1C` [Compound 31, (Z)-4-(5-((3-(2,3-Dimethylbenzyl)-4-oxo-2-thioxothiazolidin-5-ylidene)methyl)furan-2-yl)benzoic acid] yielded an EC50 of 250 to 1000 nM.
The molecule `O=C(O)c1ccc(-c2ccc(/C=C3\SC(=S)N(Cc4ccc(F)cc4)C3=O)o2)cc1` [Compound 32, (Z)-4-(5-((3-(4-Fluorobenzyl)-4-oxo-2-thioxothiazolidin-5-ylidene)methyl)furan-2-yl)benzoic acid] had an EC50 in data set [1] of 100 to 250 nM.
Regarding `COc1ccc(CN2C(=O)/C(=C/c3ccc(-c4ccc(C(=O)O)cc4)o3)SC2=S)cc1` [Compound 34, (Z)-4-(5-((3-(4-Methoxybenzyl)-4-oxo-2-thioxothiazolidin-5-ylidene)methyl)furan-2-yl)benzoic acid], the EC50 in data set [1] lay within 100 to 250 nM.
With `O=C(O)c1ccc(-c2ccc(/C=C3\SC(=S)N(Cc4ccc(Cl)cc4)C3=O)o2)cc1` [Compound 35, (Z)-4-(5-((3-(4-Chlorobenzyl)-4-oxo-2-thioxothiazolidin-5-ylidene)methyl)furan-2-yl)benzoic acid], the EC50 in data set [1] lay within 100 to 250 nM.
Molecule `O=C(O)c1ccc(-c2ccc(/C=C3\SC(=S)N(Cc4ccccc4Cl)C3=O)o2)cc1` [Compound 36, (Z)-4-(5-((3-(2-Chlorobenzyl)-4-oxo-2-thioxothiazolidin-5-ylidene)methyl)furan-2-yl)benzoic acid] gave an EC50 in data set [1] of 250 to 1000 nM.
On the same count and under the same terms, the value for `Cc1ccc(CN2C(=O)/C(=C/c3ccc(-c4ccc(C(=O)O)cc4)o3)SC2=S)c(C)c1` [Compound 37, (Z)-4-(5-((3-(2,4-Dimethylbenzyl)-4-oxo-2-thioxothiazolidin-5-ylidene)methyl)furan-2-yl)benzoic acid] was 1000 to 10000 nM; that for `Cc1ccc(CN2C(=O)/C(=C/c3ccc(-c4ccc(C(=O)O)cc4)o3)SC2=S)cc1C` [Compound 38, (Z)-4-(5-((3-(3,4-Dimethylbenzyl)-4-oxo-2-thioxothiazolidin-5-ylidene)methyl)furan-2-yl)benzoic acid] was 100 to 250 nM; that for `CC(C)c1ccc(CN2C(=O)/C(=C/c3ccc(-c4ccc(C(=O)O)cc4)o3)SC2=S)cc1` [Compound 39, (Z)-4-(5-((3-(4-Isopropylbenzyl)-4-oxo-2-thioxothiazolidin-5-ylidene)methyl)furan-2-yl)benzoic acid] was 250 to 1000 nM.
In turn, `O=C(O)c1ccc(-c2ccc(/C=C3\SC(=S)N(CC4CCCCC4)C3=O)o2)cc1` [Compound 40, (Z)-4-(5-((3-(Cyclohexylmethyl)-4-oxo-2-thioxothiazolidin-5-ylidene)methyl)furan-2-yl)benzoic acid] displayed an EC50 in data set [1] of 1000 to 10000 nM.
On the same count and under the same terms, the figure for `O=C(O)c1ccc(-c2ccc(/C=C3\SC(=S)N(Cc4ccccc4O)C3=O)o2)cc1` [Compound 41, (Z)-4-(5-((3-(2-hydroxybenzyl)-4-oxo-2-thioxothiazolidin-5-ylidene)methyl)furan-2-yl)benzoic acid] is 1000 to 10000 nM.
`O=C1/C(=C/c2ccc(-c3ccc(-c4nnn[nH]4)cc3)o2)SC(=S)N1Cc1ccccc1` [Compound 42, (Z)-5-((5-(4-(1H-tetrazol-5-yl)phenyl)furan-2-yl)methylene)-3-benzyl-2-thioxothiazolidin-4-one] came in with an EC50 in data set [1] of 250 to 1000 nM. Besides, in data set [3] (setting [4]), the Tmax was determined as 0.5 h, the half-life is 0.77 h and the Vd is 1.15 L/kg. This molecule also had an AUC(0-t) in data set [3] (Balb/C) of 357 ng·h/mL. Besides, in data set [3], the bioavailability came out at 4.1%.
